According to US8829193B2, “PIM kinase inhibitors and methods of their use” (Novartis AG, priority 2008, dated 2014):

What was measured:
[1] = system: KMS11 (human myeloma cell line); test: Cell Proliferation Assay; type: cell-based; conditions: KMS-11, 72 h, KMS11 cells, 3 days, Cell Titer-Glow
Method: KMS11 (human myeloma cell line), were cultured in IMDM supplemented with 10% FBS, sodium pyruvate and antibiotics. Cells were plated in the same medium at a density of 2000 cells per well into 96 well tissue culture plates, with outside wells vacant, on the day of assay. MM1.s (human myeloma cell line), were cultured in RPMI1640 supplemented with 10% FBS, sodium pyruvate and antibiotics. Cells were plated in the same medium at a density of 5000 cells per well into 96 well tissue culture plates, with outside wells vacant, on the day of assay.
Test compounds supplied in DMSO were diluted into DMSO at 500 times the desired final concentrations before dilution into culture media to 2 times final concentrations. Equal volumes of 2× compounds were added to the cells in 96 well plates and incubated at 37° C. for 3 days.
After 3 days plates were equilibrated to room temperature and equal volume of Cell Titer-Glow Reagent (Promega) was added to the culture wells. The plates were agitated briefly and luminescent signal was measured with luminometer.
Using the procedures for Cell Proliferation Assay described above, the EC50 concentration of compounds of the previous examples were determined in KMS11 cells as shown in the following table.

[2] = molecular target: Pim1 kinase (Homo sapiens (Human), UniProt P11309); test: Pim1 ATP depletion assay; type: biochemical; conditions: 20 μM ATP, 40 μM BAD peptide, 2.5 nM PIM1
Method: (§1) The activity of PIM1 is measured using a luciferase-luciferin based ATP detection reagent to quantify ATP depletion resulting from kinase-catalyzed phosphoryl transfer to a peptide substrate. Compounds to be tested are dissolved in 100% DMSO and directly distributed into white 384-well plates at 0.5 μl per well. […] After 15 minutes, 10 μl of 40 μM ATP in assay buffer is added. Final assay concentrations are 2.5 nM PIM1, 20 μM ATP, 40 μM BAD peptide and 2.5% DMSO. The reaction is performed until approximately 50% of the ATP is depleted, then stopped with the addition of 20 μl KinaseGlo Plus (Promega Corporation) solution. The stopped reaction is incubated for 10 minutes and the remaining ATP detected via luminescence on the Victor2 (Perkin Elmer).

[3] = molecular target: Pim2 kinase (Homo sapiens (Human), UniProt Q9P1W9); test: Pim2 ATP depletion assay; type: biochemical; conditions: 4 μM ATP, 10 μM BAD peptide, 5 nM PIM2
Method: as §1, with “of PIM2” for “of PIM1”, “0.5 piper” for “0.5 μl per”, “of 8” for “of 40”, “are 5” for “are 2.5”, “nM PIM2, 4” for “nM PIM1, 20”, “ATP, 10” for “ATP, 40”

[4] = molecular target: Pim3 kinase (Homo sapiens (Human), UniProt Q86V86); test: Pim3 ATP depletion assay; type: biochemical; conditions: 40 μM ATP, 100 μM BAD peptide
Method: The activity of PIM3 is measured using a luciferase-luciferin based ATP detection reagent to quantify ATP depletion resulting from kinase-catalyzed phosphoryl transfer to a peptide substrate. Compounds to be tested are dissolved in 100% DMSO and directly distributed into white 384-well plates at 0.5 piper well. […] After 15 minutes, 10 μl of 80 μM ATP in assay buffer is added. Final assay concentrations are 5 nM PIM1, 40 μM ATP, 100 μM BAD peptide and 2.5% DMSO. The reaction is performed until approximately 50% of the ATP is depleted, then stopped by the addition of 20 μl KinaseGlo Plus (Promega Corporation) solution. The stopped reaction is incubated for 10 minutes and the remaining ATP detected via luminescence on the Victor2 (Perkin Elmer).

Chain of Pim2 kinase (Q9P1W9 whole entry): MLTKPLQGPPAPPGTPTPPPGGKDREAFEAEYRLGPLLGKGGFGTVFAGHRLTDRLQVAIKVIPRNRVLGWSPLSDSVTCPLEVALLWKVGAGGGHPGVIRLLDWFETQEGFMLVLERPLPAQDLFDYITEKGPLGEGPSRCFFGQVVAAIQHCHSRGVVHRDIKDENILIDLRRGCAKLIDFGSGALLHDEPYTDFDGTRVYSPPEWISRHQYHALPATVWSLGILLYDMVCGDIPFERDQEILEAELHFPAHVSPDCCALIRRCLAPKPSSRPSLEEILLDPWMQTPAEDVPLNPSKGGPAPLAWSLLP
Chain of Pim1 kinase (P11309 whole entry): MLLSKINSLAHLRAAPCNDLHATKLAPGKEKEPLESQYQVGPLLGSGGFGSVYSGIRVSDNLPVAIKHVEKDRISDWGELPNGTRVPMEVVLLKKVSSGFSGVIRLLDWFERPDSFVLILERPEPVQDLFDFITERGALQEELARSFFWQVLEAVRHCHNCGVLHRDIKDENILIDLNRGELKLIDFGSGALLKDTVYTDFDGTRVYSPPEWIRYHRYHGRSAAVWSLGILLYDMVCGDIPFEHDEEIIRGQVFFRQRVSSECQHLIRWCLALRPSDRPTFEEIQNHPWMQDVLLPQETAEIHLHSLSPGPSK

SMILES | EC50 [1] [nM] | IC50 [2] [nM] | IC50 [3] [nM] | IC50 [4] [nM]
Nc1sc(-c2c(F)cccc2F)nc1C(=O)Nc1cnccc1[C@@H]1CC[C@H](O)[C@H](N)C1 (stereo in doubt) [Example 38, 5-amino-N-(4-(3-amino-4-hydroxycyclohexyl)pyridin-3-yl)-2-(2,6-difluorophenyl)thiazole-4-carboxamide] | 1890 | 1 | 4 | 3
N[C@H]1CCCN(c2ccncc2NC(=O)c2csc(-c3c(F)cccc3F)n2)C1 [Example 1, (S)-N-(4-(3-aminopiperidin-1-yl)pyridin-3-yl)-2-(2,6-difluorophenyl)thiazole-4-carboxamide] | 1170 | – | – | –
N[C@@H]1CN(c2ccncc2NC(=O)c2csc(-c3c(F)cccc3F)n2)CC[C@H]1O [Example 2, N-(4-((3R,4R)-3-amino-4-hydroxypiperidin-1-yl)pyridin-3-yl)-2-(2,6-difluorophenyl)thiazole-4-carboxamide] | 1570 | 2 | 11 | 4
N[C@@H]1CN(c2ccncc2NC(=O)c2csc(-c3c(F)cccc3F)n2)CC[C@@H]1O [Example 6, N-(4-((3R,4S)-3-amino-4-hydroxypiperidin-1-yl)pyridin-3-yl)-2-(2,6-difluorophenyl)thiazole-4-carboxamide] | 410 | 1 | 3 | 1
CO[C@@H]1C[C@H](N)CN(c2ccncc2NC(=O)c2csc(-c3c(F)cccc3F)n2)C1 [Example 8, N-(4-((3S,5R)-3-amino-5-methoxypiperidin-1-yl)pyridin-3-yl)-2-(2,6-difluorophenyl)thiazole-4-carboxamide] | 4700 | 21 | 46 | 35
CC1CC(N)CN(c2ccncc2NC(=O)c2csc(-c3c(F)cccc3F)n2)C1 (centres unmarked) [Example 14, N-(4-(3-amino-5-methylpiperidin-1-yl)pyridin-3-yl)-2-(2,6-difluorophenyl)thiazole-4-carboxamide] | 830 | – | – | –
C[C@@H]1C[C@H](N)CN(c2ccncc2NC(=O)c2csc(-c3c(F)cccc3F)n2)C1 [Example 28, N-(4-((3S,5R)-3-amino-5-methylpiperidin-1-yl)pyridin-3-yl)-2-(2,6-difluoropheenyl)thiazole-4-carboxamide] | 400 | – | – | –
Nc1sc(-c2c(F)cccc2F)nc1C(=O)Nc1cnccc1N1CCC[C@H](N)C1 [Example 29, (S)-5-amino-N-(4-(3-aminopiperidin-1-yl)pyridin-3-yl)-2-(2,6-difluorophenyl)thiazole-4-carboxamide] | 40 | – | – | –
Nc1sc(-c2c(F)cccc2F)nc1C(=O)Nc1cnccc1N1CCC(F)CC1 [Example 30, 5-amino-2-(2,6-difluorophenyl)-N-(4-(4-fluoropiperidin-1-yl)pyridin-3-yl)thiazole-4-carboxamide] | – | 1 | 55 | 3
C[C@@H]1C[C@H](O)C[C@H](c2ccncc2NC(=O)c2csc(-c3c(F)cccc3F)n2)C1 [Example 31, 2-(2,6-difluorophenyl)-N-(4-((1R,3S,5S)-3-hydroxy-5-methylcyclohexyl)pyridin-3-yl)thiazole-4-carboxamide] | – | 2 | 90 | 8
C[C@@H]1C[C@H](O)C[C@H](c2ccncc2NC(=O)c2nc(-c3c(F)cccc3F)sc2N)C1 [Example 32, 5-amino-2-(2,6-difluorophenyl)-N-(4-((1R,3S,5S)-3-hydroxy-5-methylcyclohexyl)pyridin-3-yl)thiazole-4-carboxamide] | – | 1 | 5 | 4
Nc1sc(-c2c(F)cccc2F)nc1C(=O)Nc1cnccc1[C@@H]1CCC[C@H](N)C1 [Example 33, 5-amino-N-(4-((1R,3S)-3-aminocyclohexyl)pyridin-3-yl)-2-(2,6-difluorophenyl)thiazole-4-carboxamide] | 430 | 1 | – | –
N[C@H]1CCC[C@@H](c2ccncc2NC(=O)c2csc(-c3c(F)cccc3F)n2)C1 [Example 34, N-(4-((1R,3S)-3-aminocyclohexyl)pyridin-3-yl)-2-(2,6-difluorophenyl)thiazole-4-carboxamide] | 5020 | – | – | –
C[C@@H]1CN(c2ccncc2NC(=O)c2csc(-c3c(F)cccc3F)n2)C[C@@H](N)[C@H]1O [Example 35, N-(4-((3R,4S,5R)-3-amino-4-hydroxy-5-methylpiperidin-1-yl)pyridin-3-yl)-2-(2,6-difluorophenyl)thiazole-4-carboxamide] | – | 9 | 125 | 9
C[C@@H]1C[C@H](N)C[C@H](c2ccncc2NC(=O)c2csc(C3CCCCC3)n2)C1 [Example 40, N-(4-((1R,3S,5S)-3-amino-5-methylcyclohexyl)pyridin-3-yl)-2-cyclohexylthiazole-4-carboxamide] | – | 41 | 97 | 109
C[C@H]1C[C@@H](c2ccncc2NC(=O)c2csc(C3CCCCC3)n2)C[C@@H](N)[C@@H]1O [Example 42, N-(4-((1R,3R,4R,5S)-3-amino-4-hydroxy-5-methylcyclohexyl)pyridin-3-yl)-2-cyclohexylthiazole-4-carboxamide] | – | 146 | 250 | 215
C[C@H]1C[C@@H](c2ccncc2NC(=O)c2csc(-c3c(F)cccc3F)n2)C[C@@H](N)[C@H]1O [Example 43, N-(4-((1R,3R,4S,5S)-3-amino-4-hydroxy-5-methylcyclohexyl)pyridin-3-yl)-2-(2,6-difluorophenyl)thiazole-4-carboxamide (and enantiomer)] | – | 5 | 46 | 15
C[C@@H]1C[C@H](N)C[C@H](c2ccncc2NC(=O)c2csc(-c3c(F)cccc3F)n2)C1 [Example 45, N-(4-((1R,3S,5S)-3-amino-5-methylcyclohexyl)pyridin-3-yl)-2-(2,6-difluorophenyl)thhiazole-4-carboxamide] | 920 | 1 | – | 3
CC1(C)C[C@H](N)C[C@H](c2ccncc2NC(=O)c2csc(-c3c(F)cccc3F)n2)C1 [Example 46, N-(4-((1R,5R)-5-amino-3,3-dimethylcyclohexyl)pyridin-3-yl)-2-(2,6-difluorophenyl)thiazole-4-carboxamide] | – | 1 | 16 | 3
N[C@H]1CCCN(c2ccncc2NC(=O)c2csc(-c3ccccc3)n2)C1 [Example 48, (S)-N-(4-(3-aminopiperidin-1-yl)pyridin-3-yl)-2-phenylthiazole-4-carboxamide] | – | 2 | 17.7 | 2.3
N[C@H]1CCCN(c2ccncc2NC(=O)c2csc(-c3ccccc3F)n2)C1 [Example 49, (S)-N-(4-(3-aminopiperidin-1-yl)pyridin-3-yl)-2-(2-fluorophenyl)thiazole-4-carboxamide] | – | 1.9 | 9.9 | 4.2
CC(C)NC(=O)c1ccc(F)c(-c2nc(C(=O)Nc3cnccc3N3CCC[C@H](N)C3)cs2)c1 [Example 50, (S)-N-(4-(3-aminopiperidin-1-yl)pyridin-3-yl)-2-(2-fluoro-5-(isopropylcarbamoyl)phenyl)thiazole-4-carboxamide] | – | 3.2 | 83.8 | 8.3
CC(C)Oc1ccc(F)c(-c2nc(C(=O)Nc3cnccc3[C@@H]3C[C@H](C)C[C@H](N)C3)cs2)c1F [Example 53] | – | 1 | 20 | 3
